Assays:
ES2 ovarian cancer cells = assay: Crystal violet viability assay, ES2; type: cell-based, human; set-up: key to Viability ES2: score 0- no effect-white; score 6- as or more effective than positive control- black; details: 48 h; for Viability ES2: score 0-6 compared to positive control; for mutp53-specific effect on cell number, ES2: ES2 (mp53^S241F) versus ES2 p53KO
Procedure: Cell extracts were added to ELISA plates coated with the indicated antibodies to allow mutp53 to react with the peptides and antibodies. αp53-HRP Ab was used for assessment of p53 levels. Numbers represent ratio of absorbance between the PAb1620 and PAb240 samples. All reads were normalized to the control […] reading of each extract. MCF7 (WTp53) and H1299-mutp53^A135V (tsp53) cells were used as positive controls for the WTp53 conformation (1620/240 ratio equals or exceeds 5:1). […] 96 well plates were coated with anti-p53 antibody, cell extracts containing p53 were reacted with oligonucleotides that contain a p53RE consensus binding site, labeled with biotin, in the presence or absence (NT) of test peptides. Streptavidin-HRP is used to quantify the amount of oligos in the well. TMB assay was performed to determine bound mutp53 levels (450nm). MCF7 and the H1299-mutp53^A135V(TS) cells serve as positive controls for WTp53. C.and D. - Bar graphs illustrating the effect of various selected peptides on mut-p53 dependent expression on cell viability. […] D, ES2 cells expressing endogenous mutp53 (blue bars) and ES2 cells knocked out for p53 by CRISPR construct (light blue bars). Cell lines were treated with selected peptides, Cis-platinum was used as positive control for cell death. 48 hours after treatment, cells were washed with PBS, and the remaining attached cells were stained with Crystal violet and washed 4 times with PBS. Stained cells were dissolved in 10% acetic acid and plates were taken for optical density measurement at […]. TEXT PRINTED IN THE PICTURE: (A) pCAP1: 0.87 | (A) pCAP2: 0.53 | (A) pCAP3: 0.59 | (A) pCAP4: 0.59 | (A) pCAP5: 0.60 | (A) pCAP6: 0.75 | (A) pCAP23: 1.06 | (A) pCAP24: 1.44 | (A) pCAP36: 1.25 | (A) pCAP47: 1.54 | (A) pCAP54: 1.54 | (A) pCAP60: 2.73 | (A) pCAP68: 2.22 | (A) pCAP83: 1.56 | (A) pCAP97: 2.45 DOUBTS OF THE COPYIST ABOUT THIS PICTURE: Panel A: the numbers over the bars are printed very small, rotated and blurred, so 3, 5, 6, 8 and 9 cannot be told apart with certainty. All values are best readings: pCAP1 0.87, pCAP2 0.53, pCAP3 0.59, pCAP4 0.59, pCAP5 0.60, pCAP6 0.75, pCAP23 1.06, pCAP24 1.44, pCAP36 1.25, pCAP47 1.54, pCAP54 1.54, pCAP60 2.73, pCAP68 2.22, pCAP83 1.56, pCAP97 2.45 / Panel A: the picture prints no measure with the numbers over the bars, so they are given as bare numbers / Panel A: numbers are also printed over the controls, which are not substances and are left out of lines. Best readings: NT 0.60, 60° 30'' 0.48, 60° 1' 0.37, 60° 3' 0.13, 60° 10' 0.05, MCF7 3.32, H1299TS 3.25
(§1) We also performed a similar analysis on ES2 ovarian cancer cells, which express endogenous mp53^S241F, compared to ES2 cells in which p53 was stably knocked out using CRISPR/Cas9 (ES2 p53KO Figure S1F), to control for specificity for mutp53 (Figure 2D). In ES2 cells, too, some of the peptides caused a significant reduction in cell numbers, more prominent in the mutp53 expressing cells than in their p53KO counterparts. […] Overall, we performed this analysis on several different mutp53-expressing human cancer cell lines, and the results are summarized in Table S3. Based on this comprehensive picture, we reduced the number of most promising candidate lead peptides to 30. These peptides were then synthesized with an 8 arginine C-terminal tail for enhanced delivery across cell membranes (pCAPs 130-160); for clarity, peptides are referred to by their original number, with an R for poly arginine (see Table S3).
(§2) Cells were cultured in 96 wells plates with 2500-4000 cells/well. Serial dilutions of different peptides were added and the plates incubated for additional 48 h at 37°C. Then medium was removed and cell viability was determined by staining the cells with crystal violet (0.05%) in methanol/PBS (1:5, v/v), for 10 min, followed by 3 washes with PBS. 10% acetic acid was added to each well for 10 min. OD was determined at 595 nm.

EP156 = assay: Crystal violet viability assay, EP156; type: cell-based; set-up: key: score 0- no effect-white; score 6- as or more effective than positive control- black; details: score 0-6 compared to positive control, 48 h
From the text: as §1, §2

EVTFRHSVV [pCAP-1, randomly selected peptide used as inert comparison]
Viability ES2 (ES2 ovarian cancer cells): 4

HANLHHT [pCAP-87]
Viability EP156 (EP156): 4

HHPWTHHQRWS [pCAP-20]
Viability ES2 (ES2 ovarian cancer cells): 3

HSSHHHPVHSWN [pCAP-83]
Viability EP156 (EP156): 4
mutp53-specific effect on cell number, ES2 (ES2 ovarian cancer cells): mutp53-specific effect

IRGRIIR [pCAP-54]
Viability EP156 (EP156): 4
mutp53-specific effect on cell number, ES2 (ES2 ovarian cancer cells): mutp53-specific effect

IRGRIIRRRRRRRRR [pCAP-54R, pCAP-54 with poly arginine tail]
Viability EP156 (EP156): 4
Viability ES2 (ES2 ovarian cancer cells): 3

IRILMFLIGCGR [pCAP-23]
Viability EP156 (EP156): 4
Viability ES2 (ES2 ovarian cancer cells): 3

IRILMFLIGCGRRRRRRRRR [pCAP-23R, pCAP-23 with poly arginine tail]
Viability EP156 (EP156): 4
Viability ES2 (ES2 ovarian cancer cells): 3

LHSKTLVL [pCAP-17]
Viability EP156 (EP156): 4
Viability ES2 (ES2 ovarian cancer cells): 3

LRCLLLLIGRVG [pCAP-24]
Viability EP156 (EP156): 4
mutp53-specific effect on cell number, ES2 (ES2 ovarian cancer cells): mutp53-specific effect

LRCLLLLIGRVGRRRRRRRR [pCAP-24R, pCAP-24 with poly arginine tail]
Viability EP156 (EP156): 4
Viability ES2 (ES2 ovarian cancer cells): 3

SFILFIRRGRLG [pCAP-60]
Viability EP156 (EP156): 4
mutp53-specific effect on cell number, ES2 (ES2 ovarian cancer cells): mutp53-specific effect
Viability ES2 (ES2 ovarian cancer cells): 3

SFILFIRRGRLGRRRRRRRRR [pCAP-60R, pCAP-60 with poly arginine tail]
Viability EP156 (EP156): 2
Viability ES2 (ES2 ovarian cancer cells): 3

WNHHHSTPHPAH [pCAP-97]
Viability EP156 (EP156): 3
mutp53-specific effect on cell number, ES2 (ES2 ovarian cancer cells): mutp53-specific effect
Viability ES2 (ES2 ovarian cancer cells): 3

WNHHHSTPHPAHRRRRRR [pCAP-97R, pCAP-97 with poly arginine tail]
Viability EP156 (EP156): 4
Viability ES2 (ES2 ovarian cancer cells): 4

YPTQGHLR [pCAP-36]
Viability EP156 (EP156): 4
mutp53-specific effect on cell number, ES2 (ES2 ovarian cancer cells): mutp53-specific effect
Viability ES2 (ES2 ovarian cancer cells): 3

YRRLLIGMMWRRRRRRRRR [pCAP-68]
Viability EP156 (EP156): 3
Viability ES2 (ES2 ovarian cancer cells): 5

myr-PRVLPSPHTIHPSQYP [pCAP-229, myristoylated peptide, similarity to HIPK2]
Viability EP156 (EP156): 3

myr-RRIRDPRILLLHFD [pCAP-325]
Viability EP156 (EP156): 4
Viability ES2 (ES2 ovarian cancer cells): 4

myr-RRKHNKHRPEPDSDER [pCAP-221]
Viability EP156 (EP156): 5
Viability ES2 (ES2 ovarian cancer cells): 6

myr-RRKILFIRLMHNKH [pCAP-227, myristoylated peptide, similarity to GAS2]
Viability EP156 (EP156): 4
Viability ES2 (ES2 ovarian cancer cells): 5

myr-RRLIVRILKLPNPPER [pCAP-242]
Viability EP156 (EP156): 6
Viability ES2 (ES2 ovarian cancer cells): 5
